In US4100346A, “Certain 7(o-amino-methyl- or methylaminomethylphenyl- or cyclohexadienyl- or thienylacetamide)-3[1-carboxymethyl-(or ethyl- or propyl-)-tetrazol-5-ylthiomethyl]-3-cephem-4-carboxylic acids” (Bristol-Myers Company, priority 1976, dated 1978):
Values after ≈ are worked out from the molar mass of the structure shown. Where two headings read alike, the source gives them in different places.

Assays:
D. pneumoniae = assay: MIC by Tube Dilution Technique in Nutrient Broth (Example 9 table); format: cell-based; details: Streptococcus pneumoniae; Dp-4 D. pneumoniae A9585
Source text: (§1) MIC (mcg./ml.) by Tube Dilution Technique in Nutrient Broth.

S. pyogenes = assay: as above; format: cell-based; details: Streptococcus pyogenes; Sp-3 S. pyogenes A9604
Source text: as §1

[1] = system: Escherichia coli, Klebsiella pneumoniae, Proteus mirabilis, Proteus vulgaris, Salmonella sp., Shigella sp. and Neisseria meningitidis; assay: Growth inhibitory activity, antibiotic dilution technique (text summary); format: cell-based; details: growth inhibitory activity vs cephalothin, cephaloridine, cefazolin
Enterobacter aerogenes = assay: Minimum growth inhibitory and bactericidal concentrations for Enterobacteriaceae; format: cell-based; details: Klebsiella aerogenes, inoculum 10^4 cells; for MBC: read-out: MBC, minimum bactericidal concentration; for MIC: read-out: MIC, Minimum growth inhibitory concentration
Source text: (§2) Miscellaneous. Methods for determining bactericidal activity and susceptibility to cell-free β-lactamase were those previously used; Leitner et al., BL-S640, A Cephalosporin With a Broad Spectrum of Antibacterial Activity: Properties in vitro, Antimicrob. Agents Chemother. 7:298-305 (1975).
(§3) *MIC, Minimum growth inhibitory concentration; MBC, minimum bactericidal
(§4) concentration; expressed as micrograms per milliliter. The inoculum was […]

Enterobacter cloacae = assay: as above; format: cell-based; details: for MBC: read-out: MBC, minimum bactericidal concentration; for MIC: read-out: MIC, Minimum growth inhibitory concentration
Source text: as §2, §3, §4

Escherichia coli = assay: as above; format: cell-based; details: for MBC: read-out: MBC, minimum bactericidal concentration; for MIC: read-out: MIC, Minimum growth inhibitory concentration
Source text: as §2, §3, §4

Klebsiella pneumoniae [2] = assay: as above; format: cell-based; details: for MBC: read-out: MBC, minimum bactericidal concentration; for MIC: read-out: MIC, Minimum growth inhibitory concentration
Source text: as §2, §3, §4

Proteus mirabilis = assay: as above; format: cell-based; details: for MBC: read-out: MBC, minimum bactericidal concentration; for MIC: read-out: MIC, Minimum growth inhibitory concentration
Source text: as §2, §3, §4

Proteus rettgeri [3] = assay: as above; format: cell-based; details: Providencia rettgeri, inoculum 10^4 cells; for MBC: read-out: MBC, minimum bactericidal concentration; for MIC: read-out: MIC, Minimum growth inhibitory concentration
Source text: as §2, §3, §4

Proteus vulgaris = assay: as above; format: cell-based; details: inoculum 10^4 cells; for MIC: read-out: MIC, Minimum growth inhibitory concentration; for MBC: read-out: MBC, minimum bactericidal concentration
Source text: as §2, §3, §4

[4] = Recovery in urine after intramuscular injection; details: rat, im, 10 mg/kg
Arizona hinshawii = assay: Growth inhibitory activity, antibiotic dilution technique; details: Salmonella enterica, read-out: Minimum inhibitory concentration
Serratia marcescens = assay: as above; details: read-out: Minimum inhibitory concentration
Alcaligenes sp. = assay: as above
Providencia stuartii = assay: as above; details: Providencia stuartii strains; at a concentration of 16 mcg./ml.
S. pneumoniae = assay: as above; details: Streptococcus pneumoniae, read-out: concentration inhibiting all strains
Klebsiella pneumoniae [5] = assay: Effect of inoculum size on susceptibility of Enterobacteriaceae
Proteus rettgeri [6] = assay: as above; details: Providencia rettgeri
[7] = system: Enterobacter sp. and Citrobacter sp.; assay: Growth inhibitory activity, antibiotic dilution technique (text summary); details: compared with cephalothin, cephaloridine, cefazolin
[8] = Enterobacter aerogenes strain 1
[9] = Enterobacter aerogenes strain 2
[10] = Enterobacter aerogenes strain 3
[11] = Enterobacter cloacae strain 3, inoculum 10^4 cells
[12] = Enterobacter cloacae strain 4, inoculum 10^4 cells
[13] = Enterobacter cloacae strain 8, inoculum 10^4 cells
[14] = Escherichia coli strain 1, inoculum 10^4 cells
[15] = Escherichia coli strain 2, inoculum 10^4 cells
[16] = Escherichia coli strain 3, inoculum 10^4 cells
[17] = Escherichia coli strain 4, inoculum 10^4 cells
[18] = Escherichia coli strain 5, inoculum 10^4 cells
[19] = Escherichia coli strain 6, inoculum 10^4 cells
[20] = Klebsiella pneumoniae strain 1, inoculum 10^4 cells
[21] = Klebsiella pneumoniae strain 2, inoculum 10^4 cells
[22] = Klebsiella pneumoniae strain 3, inoculum 10^4 cells
[23] = Klebsiella pneumoniae strain 4, inoculum 10^4 cells
[24] = Klebsiella pneumoniae strain 5, inoculum 10^4 cells
[25] = Klebsiella pneumoniae strain 6, inoculum 10^4 cells
[26] = Proteus mirabilis strain 1, inoculum 10^4 cells
[27] = Proteus mirabilis strain 2, inoculum 10^4 cells
[28] = Proteus mirabilis strain 3, inoculum 10^4 cells
[29] = Proteus mirabilis strain 4, inoculum 10^4 cells
[30] = Proteus mirabilis strain 5, inoculum 10^4 cells
[31] = Proteus vulgaris, Proteus vulgaris strain 2
[32] = Proteus vulgaris, Proteus vulgaris strain 4

## NCc1ccccc1CC(=O)N[C@@H]1C(=O)N2C(C(=O)O)=C(CSc3nnnn3CC(=O)O)CS[C@H]12 [Example 1]
D. pneumoniae
  MIC: 0.16 µg/mL (≈ 0.308 µM)
S. pyogenes
  MIC: 0.16 µg/mL (≈ 0.308 µM)
[1]
  times more active than the reference cephalosporins: 2 to 16
Enterobacter aerogenes; [8]
  MBC: 2 µg/mL (≈ 3.85 µM)
  MIC: 2 µg/mL (≈ 3.85 µM)
Enterobacter aerogenes; [9]
  MBC: 2 µg/mL (≈ 3.85 µM)
  MIC: 2 µg/mL (≈ 3.85 µM)
Enterobacter aerogenes; [10]
  MBC: 16 µg/mL (≈ 30.8 µM)
  MIC: 8 µg/mL (≈ 15.4 µM)
Enterobacter cloacae; [11]
  MBC: 8 µg/mL (≈ 15.4 µM)
  MIC: 4 µg/mL (≈ 7.7 µM)
Enterobacter cloacae; [12]
  MBC: 63 µg/mL (≈ 121 µM)
  MIC: 8 µg/mL (≈ 15.4 µM)
Enterobacter cloacae; [13]
  MBC: 63 µg/mL (≈ 121 µM)
  MIC: 63 µg/mL (≈ 121 µM)
Escherichia coli; [14]
  MBC: 0.5 µg/mL (≈ 0.962 µM)
  MIC: 0.5 µg/mL (≈ 0.962 µM)
Escherichia coli; [15]
  MBC: 16 µg/mL (≈ 30.8 µM)
  MIC: 16 µg/mL (≈ 30.8 µM)
Escherichia coli; [16]
  MBC: 0.5 µg/mL (≈ 0.962 µM)
  MIC: 0.25 µg/mL (≈ 0.481 µM)
Escherichia coli; [17]
  MBC: 0.5 µg/mL (≈ 0.962 µM)
  MIC: 0.5 µg/mL (≈ 0.962 µM)
Escherichia coli; [18]
  MBC: 1 µg/mL (≈ 1.92 µM)
  MIC: 1 µg/mL (≈ 1.92 µM)
Escherichia coli; [19]
  MBC: 1 µg/mL (≈ 1.92 µM)
  MIC: 1 µg/mL (≈ 1.92 µM)
Klebsiella pneumoniae [2]; [20]
  MBC: 0.25 µg/mL (≈ 0.481 µM)
  MIC: 0.25 µg/mL (≈ 0.481 µM)
Klebsiella pneumoniae [2]; [21]
  MBC: 0.25 µg/mL (≈ 0.481 µM)
  MIC: 0.25 µg/mL (≈ 0.481 µM)
Klebsiella pneumoniae [2]; [22]
  MBC: 0.25 µg/mL (≈ 0.481 µM)
  MIC: 0.25 µg/mL (≈ 0.481 µM)
Klebsiella pneumoniae [2]; [23]
  MBC: 0.5 µg/mL (≈ 0.962 µM)
  MIC: 0.5 µg/mL (≈ 0.962 µM)
Klebsiella pneumoniae [2]; [24]
  MBC: 0.5 µg/mL (≈ 0.962 µM)
  MIC: 0.5 µg/mL (≈ 0.962 µM)
Klebsiella pneumoniae [2]; [25]
  MBC: 1 µg/mL (≈ 1.92 µM)
  MIC: 0.5 µg/mL (≈ 0.962 µM)
Proteus mirabilis; [26]
  MBC: 1 µg/mL (≈ 1.92 µM)
  MIC: 0.5 µg/mL (≈ 0.962 µM)
Proteus mirabilis; [27]
  MBC: 0.5 µg/mL (≈ 0.962 µM)
  MIC: 0.5 µg/mL (≈ 0.962 µM)
Proteus mirabilis; [28]
  MBC: 0.5 µg/mL (≈ 0.962 µM)
  MIC: 0.5 µg/mL (≈ 0.962 µM)
Proteus mirabilis; [29]
  MBC: 0.5 µg/mL (≈ 0.962 µM)
  MIC: 0.25 µg/mL (≈ 0.481 µM)
Proteus mirabilis; [30]
  MBC: 0.5 µg/mL (≈ 0.962 µM)
  MIC: 0.5 µg/mL (≈ 0.962 µM)
Proteus rettgeri [3]; Proteus rettgeri strain 2
  MBC: 0.13 µg/mL (≈ 0.25 µM)
  MIC: 0.063 µg/mL (≈ 0.121 µM)
Proteus rettgeri [3]; Proteus rettgeri strain 3
  MBC: 63 µg/mL (≈ 121 µM)
  MIC: 0.25 µg/mL (≈ 0.481 µM)
Proteus vulgaris; Proteus vulgaris strain 1
  MIC: 0.5 µg/mL (≈ 0.962 µM)
Proteus vulgaris; Proteus vulgaris, Proteus vulgaris strain 1
  MBC: 1 µg/mL (≈ 1.92 µM)
Proteus vulgaris; [31]
  MBC: 0.5 µg/mL (≈ 0.962 µM)
  MIC: 0.5 µg/mL (≈ 0.962 µM)
Proteus vulgaris; [32]
  MBC: 1 µg/mL (≈ 1.92 µM)
  MIC: 0.5 µg/mL (≈ 0.962 µM)
[4]
  dose excreted at 24 h: 65%
Arizona hinshawii
  MIC: 0.13 µg/mL (≈ 0.25 µM)
Serratia marcescens
  MIC: > 125 µg/mL
Alcaligenes sp.; read-out: Minimum inhibitory concentration, Alcaligenes sp., 2 strains, geometric mean when applicable
  MIC: 63 µg/mL (≈ 121 µM)
Alcaligenes sp.; read-out: Minimum inhibitory concentration, Alcaligenes sp., 4 strains, geometric mean when applicable
  MIC: > 125 µg/mL
Alcaligenes sp.; read-out: Minimum inhibitory concentration, Alcaligenes sp., 5 strains, geometric mean when applicable
  MIC: 2.6 µg/mL (≈ 5 µM)
Providencia stuartii
  percent of strains inhibited: Ninety-eight
S. pneumoniae
  MIC: 0.25 µg/mL (≈ 0.481 µM)
Klebsiella pneumoniae [5]; read-out: Minimum Inhibitory Concentration, Klebsiella pneumoniae strain 1, A, Inoculum of 10^2 organisms
  MIC: 0.5 µg/mL (≈ 0.962 µM)
Klebsiella pneumoniae [5]; read-out: Minimum Inhibitory Concentration, Klebsiella pneumoniae strain 1, B, Inoculum of 10^6 organisms
  MIC: 1 µg/mL (≈ 1.92 µM)
Klebsiella pneumoniae [5]; read-out: Minimum Inhibitory Concentration, Klebsiella pneumoniae strain 2, A, Inoculum of 10^2 organisms
  MIC: 0.25 µg/mL (≈ 0.481 µM)
Klebsiella pneumoniae [5]; read-out: Minimum Inhibitory Concentration, Klebsiella pneumoniae strain 2, B, Inoculum of 10^6 organisms
  MIC: 2 µg/mL (≈ 3.85 µM)
Klebsiella pneumoniae [5]; read-out: Minimum Inhibitory Concentration, Klebsiella pneumoniae strain 3, A, Inoculum of 10^2 organisms
  MIC: 0.5 µg/mL (≈ 0.962 µM)
Klebsiella pneumoniae [5]; read-out: Minimum Inhibitory Concentration, Klebsiella pneumoniae strain 3, B, Inoculum of 10^6 organisms
  MIC: 4 µg/mL (≈ 7.7 µM)
Klebsiella pneumoniae [5]; read-out: Minimum Inhibitory Concentration, Klebsiella pneumoniae strain 4, A, Inoculum of 10^2 organisms
  MIC: 0.5 µg/mL (≈ 0.962 µM)
Klebsiella pneumoniae [5]; read-out: Minimum Inhibitory Concentration, Klebsiella pneumoniae strain 4, B, Inoculum of 10^6 organisms
  MIC: 4 µg/mL (≈ 7.7 µM)
Klebsiella pneumoniae [5]; read-out: Minimum Inhibitory Concentration, Klebsiella pneumoniae strain 5, A, Inoculum of 10^2 organisms
  MIC: 0.5 µg/mL (≈ 0.962 µM)
Klebsiella pneumoniae [5]; read-out: Minimum Inhibitory Concentration, Klebsiella pneumoniae strain 5, B, Inoculum of 10^6 organisms
  MIC: 2 µg/mL (≈ 3.85 µM)
Klebsiella pneumoniae [5]; read-out: Minimum Inhibitory Concentration, Klebsiella pneumoniae strain 6, A, Inoculum of 10^2 organisms
  MIC: 0.25 µg/mL (≈ 0.481 µM)
Klebsiella pneumoniae [5]; read-out: Minimum Inhibitory Concentration, Klebsiella pneumoniae strain 6, B, Inoculum of 10^6 organisms
  MIC: 4 µg/mL (≈ 7.7 µM)
Proteus rettgeri [6]; read-out: Minimum Inhibitory Concentration, Proteus rettgeri strain 1, A, Inoculum of 10^2 organisms
  MIC: 0.13 µg/mL (≈ 0.25 µM)
Proteus rettgeri [6]; read-out: Minimum Inhibitory Concentration, Proteus rettgeri strain 1, B, Inoculum of 10^6 organisms
  MIC: 125 µg/mL (≈ 241 µM)
Proteus rettgeri [6]; read-out: Minimum Inhibitory Concentration, Proteus rettgeri strain 2, A, Inoculum of 10^2 organisms
  MIC: 0.13 µg/mL (≈ 0.25 µM)
Proteus rettgeri [6]; read-out: Minimum Inhibitory Concentration, Proteus rettgeri strain 2, B, Inoculum of 10^6 organisms
  MIC: 63 µg/mL (≈ 121 µM)
Proteus rettgeri [6]; read-out: Minimum Inhibitory Concentration, Proteus rettgeri strain 3, A, Inoculum of 10^2 organisms
  MIC: 0.25 µg/mL (≈ 0.481 µM)
Proteus rettgeri [6]; read-out: Minimum Inhibitory Concentration, Proteus rettgeri strain 3, B, Inoculum of 10^6 organisms
  MIC: > 250 µg/mL
[7]
  activity against Enterobacter sp. and Citrobacter sp.: alone was active
